Tests used:
Type in all cases: in vivo
[1] = tested on: Stellaria media, Amaranthus retroflexus, Sinapis avreuse, Avena fatura, Lolium multiflorum and Setaria viridis; test: Pre-emergence action against weeds (greenhouse pot test, visual rating); conditions: application rate of 3.0 kg or less of active substance per hectare, trial period of 3 to 4 weeks
Description: Seeds of mono- and dicotyledonous weed plants are placed in sandy loam soil in cardboard pots and covered with soil. The novel compounds, formulated as wettable powders or emulsion concentrates, are then applied to the surface of the soil cover in the form of an aqueous suspension or emulsion at an application rate of from 600 to 800 l of water/ha (converted), in various dosages. After the treatment, the pots are placed in a greenhouse and kept under good growth conditions for the weeds. After the test plants have emerged after a trial period of 3 to 4 weeks, the damage to the plants or the negative effect on emergence is rated visually by comparison with untreated controls. As shown by the test results, the novel compounds have good herbicidal pre-emergence activity against a broad spectrum of weed grasses and broad-leaved weeds.

[2] = tested on: Stellaria media, Amaranthus retroflexus, Sinapis avreuse, Avena fatura, Lolium multiflorum and Setaria viridis; test: Post-emergence action against weeds (greenhouse pot test, visual rating); conditions: three-leaf stage, application rate of 3.0 kg or less of active substance per hectare, 3 to 4 weeks in greenhouse
Procedure: Seeds of mono- and dicotyledonous weeds are placed in sandy loam soil in cardboard pots, covered with soil and cultivated in a greenhouse under good growth conditions. Two to three weeks after sowing, the test plants are treated at the three-leaf stage. The novel compounds, formulated as wettable powders or emulsion concentrates, are sprayed in various dosages onto the green parts of the plant at an application rate of from 600 to 8001 of water/ha (converted), and, after the test plants have remained in the greenhouse for 3 to 4 weeks under optimum growth conditions, the action of the preparations is rated visually by comparison with untreated controls. The novel compositions also have good post-emergence herbicidal activity against a broad spectrum of economically important weed grasses and broad-leaved weeds.

[3] = tested on: Cyperus iria and Echinocloa crus-galli; test: Action on weeds in rice (paddy rice conditions, visual rating); conditions: dammed height of water 2-3 cm, about three weeks after application; also: test concentration or dose not given here
Description: Typical rice weeds such as Echinocloa crus galli and Cyperus iria are cultivated in a greenhouse under paddy rice conditions ([…] height of water: 2-3 cm). After the treatment, the test plants are set up in a greenhouse under optimum growth conditions and are maintained in this way under these conditions throughout the test period. About three weeks after application, evaluation is made by visual rating of the damage to the plants by comparison with untreated controls.

SMILES | herbicidal activity pre-emergence (damage to the plants or negative effect on emergence, rated visually) [1] | herbicidal activity post-emergence (rated visually) [2] | herbicidal activity against rice weeds (visual rating of damage) [3]
CCC(COC(=O)c1ccccc1C)Nc1nc(N)nc(C(C)C)n1 (stereo not drawn) [Example 42] | good and in most cases very good herbicidal activity | good and in most cases very good herbicidal activity | very good herbicidal activity
CCC(CCOc1cccc(C)c1)Nc1nc(N)nc(C(C)(C)F)n1 (stereo not drawn) [Example 245] | good and in most cases very good herbicidal activity | good and in most cases very good herbicidal activity | very good herbicidal activity
CCC(CCOc1ccccc1)Nc1nc(N)nc(C(C)C)n1 (stereo not drawn) [Example 231] | good and in most cases very good herbicidal activity | good and in most cases very good herbicidal activity | very good herbicidal activity
COc1cccc(OCCC(C)Nc2nc(N)nc(C(C)C)n2)c1 (stereo not drawn) [Example 213] | good and in most cases very good herbicidal activity | good and in most cases very good herbicidal activity | very good herbicidal activity
CCC(CCOc1cccc(F)c1)Nc1nc(N)nc(C(C)C)n1 (stereo not drawn) [Example 381] | good and in most cases very good herbicidal activity | good and in most cases very good herbicidal activity | very good herbicidal activity
Cc1cccc(OCCC(C)Nc2nc(N)nc(C(C)(C)F)n2)c1 (stereo not drawn) [Example 253] | good and in most cases very good herbicidal activity | good and in most cases very good herbicidal activity | very good herbicidal activity
CCC(CCOc1cc(F)cc(F)c1)Nc1nc(N)nc(C(C)(C)F)n1 (stereo not drawn) [Example 370] | good and in most cases very good herbicidal activity | good and in most cases very good herbicidal activity | very good herbicidal activity
CC(CCOc1cccc(Cl)c1)Nc1nc(N)nc(C(C)(C)F)n1 (stereo not drawn) [Example 299] | good and in most cases very good herbicidal activity | good and in most cases very good herbicidal activity | very good herbicidal activity
Cc1cccc(OCCC(C)Nc2nc(N)nc(C(F)(F)C(F)F)n2)c1 (stereo not drawn) [Example 326] | good and in most cases very good herbicidal activity | good and in most cases very good herbicidal activity | very good herbicidal activity
CCC(CCOc1cccc(Cl)c1)Nc1nc(N)nc(C(C)C)n1 (stereo not drawn) [Example 372] | good and in most cases very good herbicidal activity | good and in most cases very good herbicidal activity | very good herbicidal activity
CCC(CCOc1cccc(OC)c1)Nc1nc(N)nc(C(C)(C)F)n1 (stereo not drawn) [Example 384] | good and in most cases very good herbicidal activity | good and in most cases very good herbicidal activity | very good herbicidal activity
CCC(CCOc1cccc(F)c1)Nc1nc(N)nc(C(C)(C)F)n1 (stereo not drawn) [Example 222] | good and in most cases very good herbicidal activity | good and in most cases very good herbicidal activity | very good herbicidal activity
CC(CCOc1ccccc1)Nc1nc(N)nc(C(C)C)n1 (stereo not drawn) [Example 336] | good and in most cases very good herbicidal activity | good and in most cases very good herbicidal activity | very good herbicidal activity
CC(CCOc1cc(F)cc(F)c1)Nc1nc(N)nc(C(C)(C)F)n1 (stereo not drawn) [Example 207] | good and in most cases very good herbicidal activity | good and in most cases very good herbicidal activity | very good herbicidal activity
CCC(CCOc1cccc(Cl)c1)Nc1nc(N)nc(C(C)F)n1 (stereo not drawn) [Example 220] | good and in most cases very good herbicidal activity | good and in most cases very good herbicidal activity | very good herbicidal activity
CCC(CCOc1cccc(Cl)c1)Nc1nc(N)nc(C(C)(C)F)n1 (stereo not drawn) [Example 380] | good and in most cases very good herbicidal activity | good and in most cases very good herbicidal activity | very good herbicidal activity
CCC(CCOc1cccc(OC)c1)Nc1nc(N)nc(C(F)(F)C(F)F)n1 (stereo not drawn) [Example 228] | good and in most cases very good herbicidal activity | good and in most cases very good herbicidal activity | very good herbicidal activity
Cc1ccc(COCC(C)Nc2nc(N)nc(C(C)(C)F)n2)cc1 (stereo not drawn) [Example 183] | good and in most cases very good herbicidal activity | good and in most cases very good herbicidal activity | very good herbicidal activity
COc1cccc(OCCC(C)Nc2nc(N)nc(C(C)(C)F)n2)c1 (stereo not drawn) [Example 303] | good and in most cases very good herbicidal activity | good and in most cases very good herbicidal activity | very good herbicidal activity

From patent publication US20030186817A1, “SUBSTITUTED 2,4-DIAMINO-1,3,5-TRIAZINES, PROCESSES FOR THEIR PREPARATION AND THEIR USE AS HERBICIDES AND PLANT GROWTH REGULATORS” (priority 1998, published 2003)
